This note sets out measurements from patent US11274082B2, “Tead inhibitors and uses thereof” (Ikena Oncology, Inc., priority 2019, dated 2022).

One assay concerns H226. Briefly: Anti-proliferation assay in H226 cells. In kind it is cell-based. The conditions noted are these: Homo sapiens. The protocol: (§1) Certain compounds were tested in TEAD reporter assay, and in H226 and H28. A: EC50<0.1 uM; B: 0.1 uM≤EC50≤0.5 uM; C: EC50>0.5 uM.
Individual cell lines were grown in medium according to supplier instructions and seeded into 96-well plates at a density that ensured logarithmic growth over 72 hours. TEAD inhibitor compounds were administered to cells at a top concentration of 10 μm and subsequently a 10 point 3-fold serial dilution was conducted. After 72 hours, proliferation was quantified using Cell TITERGLO™ (Promega, Inc.) and compared to vehicle control. IC50 and EC50 values were generated using XLFit curve fitting software.

For another assay, the system named is TEAD. Briefly: TEAD reporter assay (Hippo Pathway TEAD Reporter - MCF7 cell line, luciferase). The conditions noted are these: Homo sapiens. In kind it is cell-based.
From the text: TEAD inhibition can be assayed using Hippo Pathway TEAD Reporter—MCF7 Cell Line (BPS Bioscience, Catalog #: 60618).
The TEAD Reporter—MCF7 cell line contains the firefly luciferase gene under the control of TEAD responsive elements stably integrated into the human breast cancer cell line, MCF7. Inside the cells, basal unphosphorylated YAP/TAZ remains in the nucleus and induces the constitutive expression of luciferase reporter. The cell line is validated for the inhibition of the expression of luciferase reporter by the activators of the Hippo pathway.
• 1) Harvest TEAD Reporter—MCF7 cells from culture in growth medium and seed cells at a density of 35,000 cells per well into white clear-bottom 96-well microplate in 45 μl of assay medium. • 2) Incubate cells at 37° C. in a CO2 incubator for overnight. • 3) Dilute the activators (H2O2 or okadaic acid) stock in assay medium. Add 5 μl of diluted activators to the wells. The final concentration of DMSO in assay medium is 0.1%. • 4) Add 5 μl of assay medium with same concentration of DMSO without activator to control wells. • 5) Add 50 μl of assay medium with DMSO to cell-free control wells (for determining background luminescence). • 6) Set up each treatment in at least triplicate. • 7) Incubate cells at 37° C. in a CO2 incubator for 5-6 hours. • 8) Perform luciferase assay using the ONE-Step™ Luciferase Assay System following the protocol provided: Add 100 μl of ONE-Step™ Luciferase reagent per well and rock at room temperature for ˜15 minutes. Measure luminescence using a luminometer. • 9) Data Analysis: Obtain the background-subtracted luminescence by subtracting the average background luminescence (cell-free control wells) from the luminescence reading of all wells.
as §1
(In general: A reporter such as luciferase makes a cellular process visible.)

Setting [1] is: NCI-H226, H226 cells, read-out: H226 EC50.
Setting [2] is: TEAD Reporter - MCF7 cells, read-out: TEAD Reporter Assay EC50.
Setting [3] is: NCI-H226, read-out: H226 EC50 (uM).
[4] abbreviates: MCF7, read-out: TEAD Reporter Assay EC50 (uM).

The structures appear in SMILES notation. Where two headings read alike, the source gives them in different places.

By EC50 is commonly meant the midpoint of the concentration-response curve. Regarding `CNS(=O)(=O)c1ccc(N[C@H]2CCc3ccccc32)c(-c2cn(C)cn2)c1` (single isomer, unassigned) [I-58], the EC50 in the assay with H226 (setting [1]) and in the assay with TEAD (setting [2]) was over 0.5 µM each time.
With `CNS(=O)(=O)c1ccc(N[C@@H]2CCc3ccccc32)c(-c2cn(C)cn2)c1` (single isomer, unassigned) [I-59], the EC50 in the assay on H226 (setting [1]) and in the assay on TEAD (setting [2]) was under 0.1 µM each time.
For `CNS(=O)(=O)c1ccc(NC(CO)c2ccccc2)c(-c2cn(C)cn2)c1` (stereo in doubt) [I-39, 4-[[(1S)-2-Hydroxy-1-phenyl-ethyl]amino]-N-methyl-3-(1-methylimidazol-4-yl)benzenesulfonamide], the EC50 with H226 (setting [1]) and in the assay with TEAD (setting [2]) was over 0.5 µM each time.
With `CNS(=O)(=O)c1ccc(Oc2cccc(C(F)(F)F)c2)c(B(O)O)c1` [I-18, [5-(methylsulfamoyl)-2-[3-(trifluoromethyl)phenoxy]phenyl]boronic acid], the EC50 with H226 (setting [1]) is over 0.5 µM.
As to `CNS(=O)(=O)c1ccc(Oc2cccc(C(F)(F)F)c2)c(-c2cnc(C)[nH]2)c1` [I-19, N-Methyl-3-(2-methyl-1H-imidazol-5-yl)-4-[3-(trifluoromethyl)phenoxy]benzenesulfonamide], the half-maximal effective concentration (EC50) in the assay on H226 (setting [1]) was over 0.5 µM.
Still for that read-out and setting: the value for `CNS(=O)(=O)c1ccc(Oc2cccc(C(F)(F)F)c2)c(-c2cc(C)n[nH]2)c1` [I-20, N-methyl-3-(3-methyl-1H-pyrazol-5-yl)-4-[3-(trifluoromethyl)phenoxy]benzenesulfonamide] was over 0.5 µM; that for `CNS(=O)(=O)c1ccc(Nc2cccc(C(F)(F)F)c2)c(C(=O)N(C)OC)c1` [I-21, N-methoxy-N-methyl-5-(methylsulfamoyl)-2-[3-(trifluoromethyl)anilino]benzamide] was over 0.5 µM.
As to `CNS(=O)(=O)c1ccc(Oc2cccc(C(F)(F)F)c2)c(-c2cn(C)cn2)c1` [I-22, Y-Methyl-3-(1-methyl-1H-imidazol-4-yl)-4-(3-(trifluoromethyl)phenoxy)benzenesulfonamide], the concentration giving a half-maximal response (EC50) in the assay with H226 (setting [1]) and in the assay on TEAD (setting [2]) was over 0.5 µM in each case.
For `CNS(=O)(=O)c1ccc(Nc2cccc(C(F)(F)F)c2)c(C(C)=O)c1` [I-23, 3-acetyl-N-methyl-4-[3-(trifluoromethyl)anilino]benzenesulfonamide], the 50% effective concentration (EC50) in the assay with H226 (setting [1]) and in the assay with TEAD (setting [2]) was over 0.5 µM each time.
On to `CNS(=O)(=O)c1ccc(Oc2cccc(C(F)(F)F)c2)c(C(N)=O)c1` [I-24], for which the EC50 in the assay with H226 (setting [1]) and with TEAD (setting [2]) was over 0.5 µM in each case.
As to `CNS(=O)(=O)c1ccc(Oc2cccc(C(F)(F)F)c2)c(-c2nc(C)c[nH]2)c1` [I-25, N-Methyl-3-(4-methyl-1H-imidazol-2-yl)-4-[3-(trifluoromethyl)phenoxy]benzenesulfonamide], the EC50 in the assay with TEAD (setting [2]) was over 0.5 µM.
For the molecule `COC(=O)c1ccc(NCc2ccccc2)c(-c2nnn(C)n2)c1` [I-26, Methyl 4-(benzylamino)-3-(2-methyltetrazol-5-yl)benzoate], the half-maximal effective concentration (EC50) with H226 (setting [1]) and in the assay with TEAD (setting [2]) was over 0.5 µM in each case.
As for `CNS(=O)(=O)c1ccc(N[C@@H](C)c2ccccc2)c(-c2cn(C)cn2)c1` [I-28, N-Methyl-3-(1-methylimidazol-4-yl)-4-[[(1S)-1-phenylethyl]amino]benzenesulfonamide], the EC50 in the assay on H226 (setting [1]) and in the assay on TEAD (setting [2]) was over 0.5 µM in each case.
As for `CNS(=O)(=O)c1ccc(NC(=O)c2ccccc2)c(-c2cn(C)cn2)c1` [I-29, N-[2-(1-Methylimidazol-4-yl)-4-(methylsulfamoyl)phenyl]benzamide], the concentration for a half-maximal effect (EC50) in the assay on H226 (setting [3]) and in the assay with TEAD (setting [4]) was over 0.5 µM throughout.
`CNS(=O)(=O)c1cnc(N[C@@H](C)c2ccccc2)c(-c2cn(C)cn2)c1` [I-34, N-Methyl-5-(1-methylimidazol-4-yl)-6-[[(1S)-1-phenylethyl]amino]pyridine-3-sulfonamide]: the EC50 in the assay with H226 (setting [1]) and with TEAD (setting [2]) was over 0.5 µM throughout.
Regarding `CNS(=O)(=O)c1cnc(N[C@H](C)c2ccccc2)c(-c2cn(C)cn2)c1` [I-35, N-Methyl-5-(1-methylimidazol-4-yl)-6-[[(1R)-1-phenylethyl]amino]pyridine-3-sulfonamide], the 50% effective concentration (EC50) with H226 (setting [1]) and in the assay with TEAD (setting [2]) was 0.1 to 0.5 µM each time.
For the molecule `CNS(=O)(=O)c1ccc(N[C@H](CO)c2ccccc2)c(-c2cn(C)cn2)c1` [I-40, 4-[[(1S)-2-Hydroxy-1-phenyl-ethyl]amino]-N-methyl-3-(1-methylimidazol-4-yl)benzenesulfonamide], the concentration giving a half-maximal response (EC50) with H226 (setting [1]) and in the assay on TEAD (setting [2]) was over 0.5 µM throughout.
`CCNS(=O)(=O)c1ccc(NCc2ccccc2)c(-c2cn(C)cn2)c1` [I-41, 4-(Benzylamino)-N-ethyl-3-(1-methylimidazol-4-yl)benzenesulfonamide]: the EC50 was under 0.1 µM in the assay on H226 (setting [1]) and 0.1 to 0.5 µM in the assay with TEAD (setting [2]).
Turning to `Cn1cnc(-c2cc(S(N)(=O)=O)ccc2NCc2ccccc2)c1` [I-42, 4-(Benzylamino)-3-(1-methylimidazol-4-yl)benzenesulfonamide], the results for the EC50 in the assay with H226 (setting [1]) and in the assay on TEAD (setting [2]) were 0.1 to 0.5 µM and over 0.5 µM, respectively.
`Cn1cnc(-c2cc(S(C)(=O)=O)ccc2NCc2ccccc2)c1` [I-44, N-Benzyl-2-(1-methylimidazol-4-yl)-4-methylsulfonyl-aniline]: the values for the 50% effective concentration (EC50) in the assay with H226 (setting [1]) and with TEAD (setting [2]) were 0.1 to 0.5 µM and over 0.5 µM, respectively.
Take `CC[C@@H](Nc1ccc(S(=O)(=O)NC)cc1-c1cn(C)cn1)c1ccccc1` [I-45, N-Methyl-3-(1-methylimidazol-4-yl)-4-[[(1R)-1-phenylpropyl]amino]benzenesulfonamide]: the half-maximal effective concentration (EC50) in the assay with H226 (setting [3]) and in the assay on TEAD (setting [4]) was 0.1 to 0.5 µM in each case.
In the case of `CC(C)NS(=O)(=O)c1ccc(NCc2ccccc2)c(-c2cn(C)cn2)c1` [I-46, 4-(Benzylamino)-N-isopropyl-3-(1-methylimidazol-4-yl) benzenesulfonamide], the results for the EC50 in the assay on H226 (setting [3]) and in the assay on TEAD (setting [4]) were 0.1 to 0.5 µM and over 0.5 µM, respectively.
For `CNS(=O)(=O)c1ccc(N[C@@H]2CCCc3ccccc32)c(-c2cn(C)cn2)c1` [I-47, N-Methyl-3-(1-methylimidazol-4-yl)-4-[[(1R)-tetralin-1-yl]amino]benzenesulfonamide], the EC50 in the assay with H226 (setting [1]) and with TEAD (setting [2]) was 0.1 to 0.5 µM each time.
Regarding `Cn1cnc(-c2cc(S(C)(=O)=O)ccc2Nc2cc(C(F)(F)F)ccn2)c1` [I-48, N-[2-(1-Methylimidazol-4-yl)-4-methylsulfonyl-phenyl]-4-(trifluoromethyl)pyridin-2-amine], the EC50 was 0.1 to 0.5 µM in the assay on H226 (setting [1]) and over 0.5 µM in the assay with TEAD (setting [2]).
As to `Cn1cnc(-c2cc(S(N)(=O)=O)ccc2Nc2cc(C(F)(F)F)ccn2)c1` [I-49, 3-(1-Methylimidazol-4-yl)-4-[[4-(trifluoromethyl)-2-pyridyl]amino]benzenesulfonamide], the EC50 was 0.1 to 0.5 µM with H226 (setting [1]) and over 0.5 µM in the assay with TEAD (setting [2]).
Regarding `CNS(=O)(=O)c1ccc(NCc2ccccc2)c(-c2cn(C(C)C)cn2)c1` [I-50, 4-(Benzylamino)-3-(1-isopropylimidazol-4-yl)-N-methyl-benzenesulfonamide], the EC50 in the assay with H226 (setting [1]) and in the assay on TEAD (setting [2]) was 0.1 to 0.5 µM throughout.
In the case of `CNS(=O)(=O)c1ccc(NCc2ccccc2)c(-c2cn(C3CC3)cn2)c1` [I-51, 4-(Benzylamino)-3-(1-cyclopropylimidazol-4-yl)-N-methyl-benzenesulfonamide], the EC50 in the assay on H226 (setting [1]) and in the assay with TEAD (setting [2]) was under 0.1 µM throughout.
As to `CNS(=O)(=O)c1ccc(N[C@H]2CCCc3ccccc32)c(-c2cn(C)cn2)c1` [I-52, N-Methyl-3-(1-methylimidazol-4-yl)-4-[[(1S)-tetralin-1-yl]amino]benzenesulfonamide], the EC50 in the assay with H226 (setting [1]) and with TEAD (setting [2]) was over 0.5 µM each time.
In the case of `CC[C@H](Nc1ccc(S(=O)(=O)NC)cc1-c1cn(C)cn1)c1ccccc1` [I-53, N-Methyl-3-(1-methylimidazol-4-yl)-4-[[(1S)-1-phenylpropyl]amino]benzenesulfonamide], the EC50 in the assay with H226 (setting [1]) and with TEAD (setting [2]) was over 0.5 µM throughout.
`CNS(=O)(=O)c1ccc(Nc2cc(C(F)(F)F)ccn2)c(-c2cn(C3CC3)cn2)c1` [I-54, 3-(1-Cyclopropylimidazol-4-yl)-N-methyl-4-[[4-(trifluoromethyl)-2-pyridyl]amino]benzenesulfonamide]: the EC50 in the assay on H226 (setting [1]) and in the assay with TEAD (setting [2]) was under 0.1 µM throughout.
For the molecule `CNS(=O)(=O)c1ccc(Nc2ccc(C(F)(F)F)cn2)c(-c2cn(C3CC3)cn2)c1` [I-87, 3-(1-Cyclopropylimidazol-4-yl)-N-methyl-4-[[5-(trifluoromethyl)-2-pyridyl]amino]benzenesulfonamide], the 50% effective concentration (EC50) in the assay on H226 (setting [1]) is under 0.1 µM.
